Laboratory results from patent US7018836B1, “P-TEFb compositions, methods and screening assays” (priority 1996, dated 2006).

Tests used:
Drosophila P-TEFb = assay type: biochemical; conditions: for inhibition of P-TEFb CTD kinase at higher ATP: 100 μM ATP
Description: 0.4 μl of purified RNA polymerase II and various protein samples were mixed in 18 μl of 55 mM HMK. The reaction was then initiated by the addition of 2 μl of a solution containing 2 μCi of [γ-^32P]ATP (ICN) and unlabeled ATP at 10 μM, or only unlabeled ATP at concentrations from 1 to 100 μM or other NTPs or dNTPs at concentrations of 1 to 100 μM. Reactions were incubated for the indicated times at 23° C. and then terminated with SDS loading buffer. Samples were analyzed on a 6–15% SDS polyacrylamide gel which was silver stained, dried and subjected to autoradiography if the assay contained label.

HeLa cells = conditions: added to HeLa cells; cited from earlier work
P-TEFb = assay: Phosphorylation by P-TEFb of RNA polymerase II in high salt washed early elongation complexes (western blot); assay type: biochemical, Drosophila; conditions: 20 μM DRB
[1] = system: DRB-sensitive runoff transcription in HeLa nuclear extract (P-TEFb-like activity); assay: Pulse-chase transcription in HeLa nuclear extract; assay type: biochemical, human
Description: A pulse-chase protocol was used in which the template DNA was preincubated with the extract, 20 mM HEPES, pH 7.6 and 10 mM MgCl2 for 20 min at 30° C. Nucleotides, including [α-^32P]CTP were added to start the pulse; 2 min later, excess cold CTP was added to initiate the chase. Reactions were stopped after the indicated chase times. During the pulse, 10 μl reaction mixtures contained the following: 20 mM HEPES (pH 7.6), 10 mM MgCl2, 600 μM each GTP, UTP and ATP, 5 μCi of [α-^32P]CTP (˜1 μM CTP), 66 mM KCl, 10–40 μg/ml DNA template, and 3 μl of HeLa nuclear extract. For the chase, unlabeled CTP was added to bring the total concentration of CTP to 1.2 mM and the final reaction volume to 12 μl. Reaction mixtures containing 250 mM KCl, were supplemented with KCl at the beginning of the chase. Drosophila P-TEFb was added to the preincubation mixture where indicated. Reactions were stopped by adding 200 μl of stop solution (1% Sarkosyl, 50 mM Tris, pH 8.0, 50 mM EDTA, 100 mM NaCl and 100 μg/ml tRNA). The reaction mixtures were phenol extracted and the nucleic acids were ethanol precipitated, washed with 70% ethanol, dried and analyzed by gel electrophoresis.
For polyacrylamide gel electrophoresis, samples were resuspended in […] of 0.25×TBE (1×TBE contains 89 mM Tris base, 89 mM Boric acid and 2 mM EDTA) and 8 M urea, heated for 3 min at 85° C. and analyzed in 6% acrylamide-8 M urea-1×TBE gels. Denaturing agarose gel electrophoresis was performed by resuspending samples in 50% formamide-2.2 M formaldehyde-1× morpholinepropanesulfonic acid (MOPS) buffer (20 mM MOPS, pH 7.0; 5 mM sodium acetate, 1 mM EDTA) and heating the mixture at 60° C. for 5 min. Samples were resolved in a 2% agarose gel containing 2.2 M formaldehyde and IX MOPS buffer.

[2] = system: CTD kinase found in the preinitiation complex; assay: Phosphorylation of RNA polymerase II in isolated preinitiation complexes (western blot); assay type: biochemical, Drosophila; conditions: 20 μM DRB
Description: Preinitiation complexes were formed on an immobilized actin template digested with HpaII (780 nt runoff) as described in Marshall and Price (Marshall and Price, 1992). The preinitiation complexes were isolated, washed once with 55 mM HKB (20 mM HEPES, 55 mM KCl and 200 μg/ml BSA) and resuspended into 55 mM HKB. Transcription was initiated by the addition of a pulse solution, which contained 5 μCi of [α-^32P]CTP and brought the reaction mixture to 600 μM in ATP, GTP and UTP and 2 mM MnCl2. MnCl2 increased the rate of initiation of preinitiation complexes, thereby, increasing the number of polymerases in early elongation complexes after a short pulse. After 15 seconds the reaction was stopped by the addition of EDTA to 10 mM.
Preinitiation complexes were formed on an immobilized actin template as described above in Methods, Section 3. […] Incubation of the preinitiation complexes with ATP caused a significant shift of the polymerase to the IIo form. The antibodies used to detect the large subunit of RNA polymerase II reacted more strongly with the […] of the large subunit than either the phosphorylated IIo form or the truncated IIb form. This phosphorylation was unaffected by the presence of 20 μM DRB.

[3] = system: productive elongation (runoff transcripts) by RNA polymerase II in KcN; assay type: biochemical, Drosophila; conditions: for IC50: read-out: 50% inhibition point of runoff transcription

| Structure (SMILES) | inhibition of P-TEFb CTD kinase (Drosophila P-TEFb; 10 μM ATP, DRB at 10 μM) | sensitivity of CTD kinase activity of P-TEFb (Drosophila P-TEFb; 20 μM DRB) | inhibition of P-TEFb CTD kinase at higher ATP (Drosophila P-TEFb) | amount of RNA polymerase IIo (HeLa cells) | ability of P-TEFb to phosphorylate RNA polymerase II in an early elongation complex (P-TEFb) | DRB concentration at which maximum inhibition occurred [1] | formation of DRB-insensitive processive elongation complexes [1] | fraction of runoff generated that was DRB-sensitive [1] | phosphorylation of RNA polymerase II to IIo in preinitiation complexes incubated with ATP [2] | fraction of runoff generated that was DRB-sensitive [3] | IC50 [3] | amount of H-8 required relative to DRB to inhibit the kinase to the same level (Drosophila P-TEFb; 10 μM ATP) | IC50 ([1]; HeLa NE, 2 min pulse/45 sec chase, read-out: 50% inhibition point of appearance of runoff) | effect on initiation and abortive transcription ([3]; even at concentrations that severely inhibited runoff) |
| --- | --- | --- | --- | --- | --- | --- | --- | --- | --- | --- | --- | --- | --- | --- |
| OC[C@H]1O[C@@H](n2cnc3cc(Cl)c(Cl)cc32)[C@H](O)[C@@H]1O [DRB, 5,6-dichloro-1-β-D-ribofuranosylbenzimidazole] | strongly inhibited | sensitive | less effective | rapid decrease | inhibited | 30 µM | did not inhibit | 60% | unaffected | greater than 95% | 0.7 µM | – | – | – |
| CNCCNS(=O)(=O)c1cccc2cnccc12 [H-8] | – | – | less effective | rapid decrease | – | – | – | – | – | – | 7 µM | approximately 10 times | 20 µM | unaffected |
